From patent US20260166076A1, “PHARMACEUTICAL COMPOSITION CONTAINING ZINC POLYPHOSPHATE” (Kamui Pharma, Inc., priority 2022, published 2026)
Marks after values point to notes of the source that are not given here.

Columns and labels:
[1] = test system: inflammatory cytokines (TNFα, IL1β, IL6, IFNγ); assay: DSS acute enteritis model (Example 6): RT-PCR of inflammatory cytokines in intestinal mucosa; assay type: in vivo, BALB/c mice; details: polyphosphate 5 μg/head or TAC 60 μg/head oral daily day 0-7, day 8
Method: (§1) Dextran sodium sulfate (DSS) (MP-BioMedicals; 160110) was dissolved in distilled water to prepare 2% DSS solution. Chemical-induced enteritis was triggered in BALB/c mice (Charles River, Japan) by administering the solution as drinking water ad libitum for 5 days, and acute enteritis was developed while distilled water was supplied as drinking water ad libitum from day 6 to day 8 (necropsy day). Each polyphosphate (PPA-Na, PPA-Ca, PPA-Zn, or PPA-Mg; 5 μg/head each) or tacrolimus (TAC; 60 μg/head; Sigma CORPORATION, PHR1809) was orally administered daily from day 0 to day 7, and on day 8, the mice were subjected to various tests.
(§2) The colon was cut and open in half using scissors, and the intestinal mucosa was detached with a slide glass. Intestinal mucosal tissue was soaked in 0.5 ml TRIzol (ThermoFisher Scientific K.K.), frozen in liquid nitrogen, and stored at −80° C. After thawing each stored sample at room temperature, RNA was recovered according to the procedure instructed by ThermoFisher Scientific K.K. The recovered total RNA was purified using an RNeasy Mini kit (Qiagen) and reverse-transcribed using a High-Capacity cDNA Reverse Transcription Kit (ThermoFisher Scientific K.K.). A PCR reaction was performed, using the recovered cDNA as a template, with EagleTaq Universal Master Mix with ROX (Roche). The primers (TaqMan Gene Expression Assays; ThermoFisher Scientific K.K.) used in the reaction are as follows. IL1β: Mm01336189, TNFα: Mm00443258, IL6: Mn00446190, IFNγ: Mm99999071. Changes in each gene expression level were standardized based on the expression level of Eukaryotic 18S rRNA Endogenous Control (ThermoFisher Scientific K.K.). Spectrum data was acquired using the Applied Biosystems 7300 Real Time PCR system.

[2] = test system: inflammatory cytokines (IL1β, TNFα, IL6, IFNγ, IL17A); assay: DSS acute enteritis model (Example 10, after long-term storage): RT-PCR of cytokine mRNA; assay type: in vivo, mice; details: day 12, PPA-Zn initial (not stored) or TAC
Method: as §2
(§3) Zinc polyphosphate Test 15-2 was stored under a condition at 60° C. and 75% RH for 8 weeks according to Example 2. The zinc polyphosphate Test 15-2 after storage was used to evaluate efficacy in the DSS acute enteritis model, measure the intestinal length, perform RT-PCR, and evaluate the histopathological severity according to Example 6 (Table 7, FIG. 9).
(§4) DDS acute enteritis model mice were generated according to Example 6 and subjected to various tests on day 12 (FIG. 9).
The mRNA expression levels of various cytokines (IL1β, TNFα, IL6, IFNγ, and IL17A) were analyzed according to Example 6, and the improvement rate was calculated (Table 7). The primers (TaqMan Gene Expression Assays; ThermoFisher Scientific K.K.) used in the reaction are as follows. IL1β: Mm01336189, TNFα: Mm00443258, IL6: Mn00446190, IFNγ: Mm99999071, IL17A: Mm00439618.

[3] = test system: DSS acute enteritis model; assay: DSS acute enteritis model (Example 9, dose examination): intestinal length and histopathological evaluation; assay type: in vivo, BALB/c mice; details: DSS mice; 20 μg/head oral daily day 5-11; day 12
Method: (§5) Mice were euthanized by cervical dislocation under isoflurane anesthesia, and the entire length of the colon was excised after opening the abdomen with scissors. The length of the excised colon was measured on a scale (FIG. 5).
(§6) Each colon tissue was Swiss rolled (Moolenbeek C, Lab Anim. 1981) and fixed in 10% formalin according to the procedure instructed by Moolenbeek C et al. The tissue was paraffin-embedded, thinly sliced to 4 μm, and stained with hematoxylin & eosin as a prepared specimen. The tissue was pathologically evaluated by inflammatory tissue scoring (Berg DJ, J Clin Invest, 1996) as described by Berg et al. The improvement rate (%) was calculated according to the following formula (Table 4).
(§7) Dextran sodium sulfate (DSS) (MP-BioMedicals; 160110) was dissolved in distilled water to prepare 2% DSS solution. Chemical-induced enteritis was triggered in BALB/c mice (Charles River, Japan) by administering the solution as drinking water ad libitum for 5 days, and acute enteritis was developed while distilled water was supplied as drinking water ad libitum from day 5 to day 12 (necropsy day). Zinc polyphosphate PPA-Zn (1, 5, 20, or 50 μg/head each) or tacrolimus (20 μg/head) was orally administered daily from day 5 to day 11, and on day 12, the mice were subjected to various tests (FIG. 8).
The intestinal length after zinc polyphosphate treatment was measured according to Example 6, and the improvement rate was calculated (FIG. 8).
Each tissue was pathologically evaluated by inflammatory tissue scoring according to Example 6, and the improvement rate was calculated (Table 6).

[4] = test system: DSS acute enteritis model; assay: DSS acute enteritis model (Example 6): intestinal length and histopathological evaluation; assay type: in vivo, BALB/c mice; details: DSS mice; polyphosphate 5 μg/head or TAC 60 μg/head oral daily day 0-7; day 8
Method: as §1, §5, §6

[5] = test system: inflammatory cytokines (IL1β, TNFα, IL6, IFNγ, IL17A); assay: DSS acute enteritis model (Example 9, dose examination): RT-PCR of cytokine mRNA; assay type: in vivo, BALB/c mice; details: 20 μg/head oral daily day 5-11, day 12
Method: as §2, §7
The mRNA expression levels of various cytokines (IL1β, TNFα, IL6, IFNγ, and IL17A) were analyzed according to Example 6, and the improvement rate was calculated (Table 6). The primers (TaqMan Gene Expression Assays; ThermoFisher Scientific K.K.) used in the reaction are as follows. IL1β: Mm01336189, TNFα: Mm00443258, IL6: Mn00446190, IFNγ: Mm99999071, IL17A: Mm00439618.

[6] = test system: DSS acute enteritis model; assay: DSS acute enteritis model (Example 10, after long-term storage): intestinal length and histopathological evaluation; assay type: in vivo; details: DSS mice, day 12; PPA-Zn initial (not stored) or TAC
Method: as §5, §6, §3, §4
The intestinal length after zinc polyphosphate treatment was measured according to Example 6, and the improvement rate was calculated (FIG. 9).
Each tissue was pathologically evaluated by inflammatory tissue scoring according to Example 6, and the improvement rate was calculated (Table 7).

[7] = relative value when control is set to 1

Compound: C=CC[C@@H]1/C=C(\C)C[C@H](C)C[C@H](OC)[C@H]2O[C@@](O)(C(=O)C(=O)N3CCCC[C@H]3C(=O)O[C@H](/C(C)=C/[C@@H]3CC[C@@H](O)[C@H](OC)C3)[C@H](C)[C@@H](O)CC1=O)[C@H](C)C[C@@H]2OC [TAC, tacrolimus]
- Improvement rate IFNγ ([1]; DSS mice): 98%
- Improvement rate IL1β ([1]; DSS mice): 88% *
- Improvement rate IL6 ([1]; DSS mice): 94%
- Improvement rate TNFα ([1]; DSS mice): 85% *
- Changes in inflammatory cytokines IFNγ [1, 7]: 2 ± 0.9
- Changes in inflammatory cytokines IL1β [1, 7]: 6.7 ± 6.3
- Changes in inflammatory cytokines IL6 [1, 7]: 5.1 ± 2.3
- Changes in inflammatory cytokines TNFα [1, 7]: 2.2 ± 0.5
- Improvement rate IFNγ ([2]; DSS mice): 79%
- Improvement rate IL1β ([2]; DSS mice): 44%
- Improvement rate IL6 ([2]; DSS mice): 76%
- Improvement rate IL17A ([2]; DSS mice): 80%
- Improvement rate TNFα ([2]; DSS mice): 50%
- Changes in inflammatory cytokines IFNγ [2, 7]: 12.1 ± 27.7
- Changes in inflammatory cytokines IL1β [2, 7]: 201.1 ± 211.7
- Changes in inflammatory cytokines IL6 [2, 7]: 49.5 ± 55.5
- Changes in inflammatory cytokines IL17A [2, 7]: 192.9 ± 321.9
- Changes in inflammatory cytokines TNFα [2, 7]: 8.2 ± 5
- Improvement rate Histological severity [3]: 27%
- Improvement rate Intestinal length [3]: 9%
- Macro findings Intestinal length [3]: 99.4 ± 12.6 mm
- Micro findings Histological sovority [3]: 2.4 ± 1.3
- Improvement rate Histological severity [4]: 40% *
- Improvement rate Intestinal length [4]: 43% *
- Macro findings Intestinal length [4]: 109.8 ± 6.5 mm
- Micro findings Histological severity [4]: 1.8 ± 0.4
- Improvement rate IFNγ ([5]; DSS mice): 63%
- Improvement rate IL1β ([5]; DSS mice): 31%
- Improvement rate IL6 ([5]; DSS mice): 73%
- Improvement rate IL17A ([5]; DSS mice): 66%
- Improvement rate TNFα ([5]; DSS mice): 39%
- Changes in inflammatory cytokines IFNγ [5, 7]: 1.5 ± 0.8
- Changes in inflammatory cytokines IL1β [5, 7]: 85.9 ± 117.1
- Changes in inflammatory cytokines IL6 [5, 7]: 27.2 ± 52.4
- Changes in inflammatory cytokines IL17A [5, 7]: 53.9 ± 77
- Changes in inflammatory cytokines TNFα [5, 7]: 5.4 ± 4.5
- Improvement rate Histological severity [6]: 42%
- Improvement rate Intestinal length [6]: 12%
- Macro findings Intestinal length [6]: 89 ± 4.5 mm
- Micro findings Histological severity [6]: 2.3 ± 0.5
